Laboratory results reported in article PMC12679645, “Diversifying the triquinazine scaffold of a Janus kinase inhibitor” (RSC Medicinal Chemistry, 2025).
Read-outs that look alike come from different tables or passages of the source.

Columns and labels:
JAK1 [1] = target: T1, JAK1 (Homo sapiens, UniProt P23458); assay: biochemical; parameters: Eurofins Cerep biochemical enzymatic kinase assay, per cent inhibition at a single concentration, duplicate
Description: Given the structural similarities between the expanded ring analogues 16a and 16b and the previously described inhibitor KMC420, we initially evaluated their activity at 0.1 μM against JAK1, JAK2, JAK3, and TYK2, using biochemical enzymatic assays provided by Eurofins Cerep SA. […] Spiro diamines containing a deazapurine ring are known JAK inhibitors.[35] […] However, this compound was not tested against the other JAK enzymes. Due to its similarity to our potent compound 40a, we decided to investigate its inhibitory activity against the four enzymes at a concentration of 0.1 μM. […] To investigate the binding differences between 40a and (R)-KMC420, we performed docking studies with DOCK6 using the JAK1 co-crystal structure with tofacitinib (PDB 3EYG) as receptor.

JAK2 [2] = target: T2, JAK2 (Homo sapiens, UniProt O60674); assay: biochemical; parameters: Eurofins Cerep biochemical enzymatic kinase assay, per cent inhibition at a single concentration, duplicate
Source text: (§1) Spiro diamines containing a deazapurine ring are known JAK inhibitors.[35]

TYK2 [3] = target: T3, TYK2 (Homo sapiens, UniProt P29597); assay: biochemical; parameters: Eurofins Cerep biochemical enzymatic kinase assay, per cent inhibition at a single concentration, duplicate
Source text: as §1

JAK3 [4] = target: T4, JAK3 (Homo sapiens, UniProt P52333); assay: biochemical; parameters: Eurofins Cerep biochemical enzymatic kinase assay, per cent inhibition at a single concentration, duplicate; conditions: read-out: % of inhibition ^a / JAK3
T4 sequence (P52333 1-1124): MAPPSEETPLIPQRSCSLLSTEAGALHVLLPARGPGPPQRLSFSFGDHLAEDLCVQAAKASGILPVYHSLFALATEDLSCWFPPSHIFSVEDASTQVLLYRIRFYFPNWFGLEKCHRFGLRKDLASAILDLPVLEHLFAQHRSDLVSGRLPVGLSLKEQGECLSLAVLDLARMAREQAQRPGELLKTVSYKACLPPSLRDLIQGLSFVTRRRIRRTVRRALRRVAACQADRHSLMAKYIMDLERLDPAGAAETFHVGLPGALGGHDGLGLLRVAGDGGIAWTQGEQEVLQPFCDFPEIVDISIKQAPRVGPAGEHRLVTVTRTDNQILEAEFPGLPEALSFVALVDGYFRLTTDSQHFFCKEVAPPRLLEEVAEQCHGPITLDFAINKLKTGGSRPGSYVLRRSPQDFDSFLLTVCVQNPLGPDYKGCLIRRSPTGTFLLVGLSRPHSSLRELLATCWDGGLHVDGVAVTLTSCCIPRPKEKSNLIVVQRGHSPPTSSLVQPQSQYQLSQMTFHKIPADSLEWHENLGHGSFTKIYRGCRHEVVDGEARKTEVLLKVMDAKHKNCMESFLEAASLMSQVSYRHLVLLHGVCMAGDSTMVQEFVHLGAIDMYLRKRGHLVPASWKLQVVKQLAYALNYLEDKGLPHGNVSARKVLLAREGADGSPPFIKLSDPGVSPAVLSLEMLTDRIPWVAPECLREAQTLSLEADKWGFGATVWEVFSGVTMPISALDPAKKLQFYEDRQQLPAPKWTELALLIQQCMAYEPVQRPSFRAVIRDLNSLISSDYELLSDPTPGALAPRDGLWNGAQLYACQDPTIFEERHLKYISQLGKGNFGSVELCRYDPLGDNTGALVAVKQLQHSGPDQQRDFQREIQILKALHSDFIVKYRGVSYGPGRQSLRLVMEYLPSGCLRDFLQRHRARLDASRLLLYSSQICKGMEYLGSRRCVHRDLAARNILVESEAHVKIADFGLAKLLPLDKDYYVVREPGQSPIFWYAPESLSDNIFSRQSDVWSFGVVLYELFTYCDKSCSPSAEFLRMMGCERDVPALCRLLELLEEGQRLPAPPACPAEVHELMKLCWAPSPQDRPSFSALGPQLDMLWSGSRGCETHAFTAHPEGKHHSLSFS

JAK1 [5] = target: T1, JAK1; assay: biochemical; parameters: radiometric filter-binding kinase inhibition assay (Eurofins Cerep), scintillation counting
Description: (§2) Given the structural similarities between the expanded ring analogues 16a and 16b and the previously described inhibitor KMC420, we initially evaluated their activity at 0.1 μM against JAK1, JAK2, JAK3, and TYK2, using biochemical enzymatic assays provided by Eurofins Cerep SA.

JAK2 [6] = target: T2, JAK2; assay: biochemical; parameters: radiometric filter-binding kinase inhibition assay (Eurofins Cerep), scintillation counting
Description: as §2

JAK3 [7] = target: T4, JAK3; assay: biochemical; parameters: radiometric filter-binding kinase inhibition assay (Eurofins Cerep), scintillation counting
Description: as §2

TYK2 [8] = target: T3, TYK2; assay: biochemical; parameters: radiometric filter-binding kinase inhibition assay (Eurofins Cerep), scintillation counting
Description: as §2

JAK1 [9] = target: T1, JAK1; assay: biochemical enzymatic kinase assay (Eurofins Cerep), IC50 curve

T2 sequence (O60674 whole entry): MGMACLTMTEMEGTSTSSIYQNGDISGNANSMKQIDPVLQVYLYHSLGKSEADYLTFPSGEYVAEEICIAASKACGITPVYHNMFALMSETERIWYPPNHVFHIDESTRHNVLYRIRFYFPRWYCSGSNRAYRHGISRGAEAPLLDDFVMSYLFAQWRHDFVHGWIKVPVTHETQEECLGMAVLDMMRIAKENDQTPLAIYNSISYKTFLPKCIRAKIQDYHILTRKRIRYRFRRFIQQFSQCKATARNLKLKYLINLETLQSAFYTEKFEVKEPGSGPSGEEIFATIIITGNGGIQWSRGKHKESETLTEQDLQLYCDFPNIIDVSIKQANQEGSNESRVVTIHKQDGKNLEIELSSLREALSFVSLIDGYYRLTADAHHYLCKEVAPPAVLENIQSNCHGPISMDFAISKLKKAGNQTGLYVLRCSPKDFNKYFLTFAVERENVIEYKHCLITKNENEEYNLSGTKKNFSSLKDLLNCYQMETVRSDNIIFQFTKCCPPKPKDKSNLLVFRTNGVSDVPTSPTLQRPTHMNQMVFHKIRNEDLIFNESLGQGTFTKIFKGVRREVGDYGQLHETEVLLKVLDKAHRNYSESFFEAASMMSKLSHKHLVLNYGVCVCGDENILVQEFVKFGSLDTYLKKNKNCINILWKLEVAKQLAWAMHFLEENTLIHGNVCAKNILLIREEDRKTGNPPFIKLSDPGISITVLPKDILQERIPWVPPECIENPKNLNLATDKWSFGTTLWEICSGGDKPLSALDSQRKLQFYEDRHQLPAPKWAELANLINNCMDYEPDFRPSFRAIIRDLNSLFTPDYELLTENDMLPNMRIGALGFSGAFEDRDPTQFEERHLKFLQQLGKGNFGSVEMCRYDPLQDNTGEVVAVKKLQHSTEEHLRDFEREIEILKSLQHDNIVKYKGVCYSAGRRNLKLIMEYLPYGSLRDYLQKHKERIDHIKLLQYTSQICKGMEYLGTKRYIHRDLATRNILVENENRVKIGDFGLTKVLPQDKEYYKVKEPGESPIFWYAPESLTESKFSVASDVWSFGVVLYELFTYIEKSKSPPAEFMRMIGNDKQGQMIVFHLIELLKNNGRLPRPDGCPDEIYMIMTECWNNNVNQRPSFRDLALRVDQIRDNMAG
T1 sequence (P23458 whole entry): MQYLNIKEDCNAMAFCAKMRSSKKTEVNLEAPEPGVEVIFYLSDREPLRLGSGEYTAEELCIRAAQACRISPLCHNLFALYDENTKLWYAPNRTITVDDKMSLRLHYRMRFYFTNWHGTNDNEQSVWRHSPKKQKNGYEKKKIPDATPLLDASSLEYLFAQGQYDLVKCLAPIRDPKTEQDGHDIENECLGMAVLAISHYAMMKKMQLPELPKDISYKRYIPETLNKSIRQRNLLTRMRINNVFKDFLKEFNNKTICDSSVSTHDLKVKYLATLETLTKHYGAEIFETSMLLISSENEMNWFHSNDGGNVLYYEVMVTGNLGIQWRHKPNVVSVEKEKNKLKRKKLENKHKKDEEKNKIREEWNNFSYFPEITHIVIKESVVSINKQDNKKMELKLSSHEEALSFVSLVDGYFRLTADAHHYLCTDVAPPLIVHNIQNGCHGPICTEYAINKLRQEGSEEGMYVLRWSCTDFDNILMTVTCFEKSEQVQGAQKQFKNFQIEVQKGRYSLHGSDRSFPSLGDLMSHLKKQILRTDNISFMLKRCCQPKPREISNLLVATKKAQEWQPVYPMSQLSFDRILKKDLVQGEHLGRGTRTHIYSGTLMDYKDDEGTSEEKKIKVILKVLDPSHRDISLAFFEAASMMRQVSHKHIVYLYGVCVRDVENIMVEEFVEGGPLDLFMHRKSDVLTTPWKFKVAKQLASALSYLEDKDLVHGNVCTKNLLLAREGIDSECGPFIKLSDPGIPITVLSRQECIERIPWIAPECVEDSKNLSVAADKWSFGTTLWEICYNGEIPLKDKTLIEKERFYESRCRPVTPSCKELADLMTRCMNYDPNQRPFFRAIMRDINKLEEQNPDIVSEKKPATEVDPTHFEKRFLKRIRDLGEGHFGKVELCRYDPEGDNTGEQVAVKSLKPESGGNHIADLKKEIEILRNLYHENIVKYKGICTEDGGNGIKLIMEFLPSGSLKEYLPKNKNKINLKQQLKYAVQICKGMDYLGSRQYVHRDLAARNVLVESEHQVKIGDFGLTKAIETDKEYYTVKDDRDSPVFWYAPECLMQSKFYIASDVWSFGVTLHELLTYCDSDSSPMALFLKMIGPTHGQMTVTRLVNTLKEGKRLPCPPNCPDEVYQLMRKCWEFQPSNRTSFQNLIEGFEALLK
T3 sequence (P29597 whole entry): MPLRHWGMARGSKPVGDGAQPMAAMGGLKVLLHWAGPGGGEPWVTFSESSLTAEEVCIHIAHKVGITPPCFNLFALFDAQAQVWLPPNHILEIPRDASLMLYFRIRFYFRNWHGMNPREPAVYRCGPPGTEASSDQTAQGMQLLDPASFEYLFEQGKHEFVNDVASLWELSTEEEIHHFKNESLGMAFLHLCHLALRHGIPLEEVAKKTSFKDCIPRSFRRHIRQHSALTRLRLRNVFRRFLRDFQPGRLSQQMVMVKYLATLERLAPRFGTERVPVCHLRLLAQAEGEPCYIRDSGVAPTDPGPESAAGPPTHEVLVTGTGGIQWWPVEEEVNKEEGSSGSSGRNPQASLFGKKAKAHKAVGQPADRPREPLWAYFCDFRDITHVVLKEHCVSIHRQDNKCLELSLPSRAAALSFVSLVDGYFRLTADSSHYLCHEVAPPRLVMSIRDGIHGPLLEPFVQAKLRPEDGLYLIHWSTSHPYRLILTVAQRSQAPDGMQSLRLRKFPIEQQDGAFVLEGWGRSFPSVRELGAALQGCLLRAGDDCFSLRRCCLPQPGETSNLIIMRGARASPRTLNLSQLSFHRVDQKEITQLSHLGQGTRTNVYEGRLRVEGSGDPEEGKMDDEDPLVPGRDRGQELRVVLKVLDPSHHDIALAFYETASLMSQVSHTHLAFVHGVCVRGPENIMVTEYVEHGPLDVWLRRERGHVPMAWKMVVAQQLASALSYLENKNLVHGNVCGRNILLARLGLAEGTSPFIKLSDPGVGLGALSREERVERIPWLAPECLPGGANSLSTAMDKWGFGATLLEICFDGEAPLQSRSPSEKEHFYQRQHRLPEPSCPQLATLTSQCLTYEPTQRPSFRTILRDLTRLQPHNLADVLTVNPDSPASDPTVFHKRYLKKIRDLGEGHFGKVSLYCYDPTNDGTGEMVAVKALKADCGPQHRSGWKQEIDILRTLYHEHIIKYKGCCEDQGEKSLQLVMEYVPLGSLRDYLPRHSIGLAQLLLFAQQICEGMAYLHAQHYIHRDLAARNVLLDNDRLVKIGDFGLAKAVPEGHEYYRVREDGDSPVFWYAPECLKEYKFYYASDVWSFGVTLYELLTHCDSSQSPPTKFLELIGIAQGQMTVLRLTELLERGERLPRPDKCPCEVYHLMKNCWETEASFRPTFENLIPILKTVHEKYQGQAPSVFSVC

For `C=CC(=O)N1CCC2(C)C(Nc3ncnc4[nH]ccc34)CCC12` (centres unmarked) [36b], the inhibition at 10 µM (JAK1 [1]) was 84 ± 2%, the inhibition at 10 µM (JAK2 [2]) was 47 ± 2% and the inhibition at 10 µM (TYK2 [3]) was 52%. For the same molecule, the inhibition at 10 µM (JAK3 [4]) was 63 ± 1%.
For `CC12CCN(C#N)C1CCC2Nc1ncnc2[nH]ccc12` (centres unmarked) [36c], the inhibition at 10 µM (JAK1 [1]) was 92%, the inhibition at 10 µM (JAK2 [2]) was 80 ± 3% and the inhibition at 10 µM (TYK2 [3]) was 74 ± 3%.
`CCS(=O)(=O)N1CCC2(C)C(Nc3ncnc4[nH]ccc34)CCC12` (centres unmarked) [36d] showed an inhibition at 10 µM (JAK1 [1]) of 86 ± 1%, an inhibition at 10 µM (JAK2 [2]) of 51 ± 3% and an inhibition at 10 µM (TYK2 [3]) of 67 ± 1%. The inhibition at 10 µM (JAK3 [4]) was 42 ± 3%, the inhibition at 1 µM (JAK1 [5]) was 45% and the inhibition at 10 µM (JAK1 [5]) was 99%. The inhibition at 1 µM (JAK2 [6]) was 11%, the inhibition at 10 µM (JAK2 [6]) was 98% and the inhibition at 1 µM (JAK3 [7]) was 44%. It also gave an inhibition at 10 µM (JAK3 [7]) of 96%, an inhibition at 1 µM (TYK2 [8]) of 53% and an inhibition at 10 µM (TYK2 [8]) of 97%.
Molecule `CC12CCN(c3ncnc4[nH]ccc34)C1CCC2NC(=O)CC#N` (centres unmarked) [40a] has an inhibition at 0.1 µM (JAK1 [1]) of 80 ± 3%, an inhibition at 0.1 µM (JAK2 [2]) of 3 ± 1% and an inhibition at 0.1 µM (TYK2 [3]) of 29 ± 3%. The inhibition at 0.1 µM (JAK3 [4]) was 27 ± 1%, the inhibition at 1 µM (JAK1 [5]) was 99% and the inhibition at 10 µM (JAK1 [5]) was 99%. The inhibition at 1 µM (JAK2 [6]) was 72%, the inhibition at 10 µM (JAK2 [6]) was 91% and the inhibition at 1 µM (JAK3 [7]) was 79%. The inhibition at 10 µM (JAK3 [7]) was 89%, the inhibition at 1 µM (TYK2 [8]) was 82% and the inhibition at 10 µM (TYK2 [8]) was 95%.
`CCS(=O)(=O)NC1CCC2N(c3ncnc4[nH]ccc34)CCC12C` (centres unmarked) [40d] was tested, and the inhibition at 0.1 µM (JAK1 [1]) was 28 ± 6%, the inhibition at 0.1 µM (JAK2 [2]) was 1 ± 8% and the inhibition at 0.1 µM (TYK2 [3]) was 11 ± 12%. The inhibition at 0.1 µM (JAK3 [4]) was -10 ± 11%, the inhibition at 1 µM (JAK1 [5]) was 76% and the inhibition at 1 µM (JAK2 [6]) was 38%. It also gave an inhibition at 1 µM (JAK3 [7]) of 11%.
Molecule `CCS(=O)(=O)N1CCC2(CCN(c3ncnc4[nH]ccc34)C2)C1` (centres unmarked) [43d] has an inhibition at 1 µM (JAK1 [1]) of 87 ± 1%, an inhibition at 1 µM (JAK2 [2]) of 54 ± 6% and an inhibition at 1 µM (TYK2 [3]) of 34 ± 8%. It also gave an inhibition at 1 µM (JAK3 [4]) of 22 ± 1%.
`C[C@]12CCN(c3ncnc4[nH]ccc34)[C@H]1CC[C@@H]2NC(=O)CC#N` [(R,S,S)-40a] showed an IC50 (JAK1 [9]) of 69 nM.
`C[C@@]12CCN(c3ncnc4[nH]ccc34)[C@@H]1CC[C@H]2NC(=O)CC#N` [(S,R,R)-40a] gave an IC50 (JAK1 [9]) of 18 nM.
